According to a melting point compilation (Tetko et al.; mined from patent text by program, amines drawn as free bases though some values may be those of a salt):

Compound `CC(C)CN1c2ccccc2C(C)(C)C12C=Nc1c(cc(N3CCc4ccccc43)c3ccccc13)O2` (stereo not drawn) has a melting point of 167 to 168 °C. `CCN(CC)CCN1Cc2nc3ccccc3c(=O)n2-c2ccccc2C1=O` gave a melting point of 117 to 119 °C. Work on `COc1cc(OC)nc(NC(=O)NS(=O)(=O)c2ccccc2OS(=O)(=O)N(C)C)n1` yielded a melting point of 165 to 168 °C. `CCCC(=O)Oc1ccc(-c2nc(-c3ccc(N(C)C)cc3)c(C)[nH]2)cc1OC` showed a melting point of 62 to 64 °C. `COc1cc(NC(=O)Oc2ccccc2)ccc1S(=O)(=O)n1c(=O)n(C2CCCCCC2)c2cc(Cl)ccc21` showed a melting point of 234 °C. Work on `CCNC(=O)C(C)NC(=O)OCc1ccccc1` (stereo not drawn) yielded a melting point of 116 to 117 °C. With `Cc1cc(F)ccc1C1=C(c2ccc(S(C)(=O)=O)cc2)CCC1` the melting point was 112 to 114 °C. In the case of `Oc1ccc2cc(-c3ccc(-c4ccccc4)[nH]3)ccc2c1`, the melting point is reported as 210 °C. For `CNC(=O)c1cc(Br)cc(I)c1`, the melting point was 205 °C. `CCc1cc(=O)n(CCC(C(=O)NO)N(C)S(=O)(=O)c2ccc(Oc3ccccc3)cc2)c(=O)[nH]1` (stereo not drawn) gave a melting point of 177 to 179 °C. With `COc1ccc(N2CCOCC2)c2sc(NC(=O)c3ccnc(CN(C)C(C)=O)c3)nc12` the melting point was 228 to 230 °C. For `CCCCc1nc(O)c(CC(=O)O)c(=O)n1Cc1ccc(C(=O)O)cc1`, the melting point was 260 °C. `Cc1ccccc1C(=O)Nc1ccc(C(=O)Cl)cc1` gave a melting point of 135 to 141 °C. For `CS(=O)(=O)c1ccc(-n2cncc2-c2cnc(Cl)c(Cl)c2)cc1`, the melting point was 192 to 198 °C. In the case of `Cc1cccc(-c2nc(C(C)C)[nH]c2-c2ccc(F)c(-c3cnn(C(C)C)c3)c2)n1`, the melting point is reported as 84 to 85 °C. `c1ccc(-c2ncc3[nH]c4c(c3n2)CCCC4)cc1` showed a melting point of 197 to 198 °C. In the case of `O=C(NCCCCN1C2CCC1CN(c1ccc(Cl)cc1)C2)C(F)(F)F`, the melting point is reported as 83 to 85 °C. In the case of `CCn1nc(OCC(=O)C(C)(C)C)c(-c2ccc(F)cc2)c1-c1ccc(S(N)(=O)=O)cc1`, the melting point is reported as 196 to 198 °C. Work on `CC(=O)Nc1ccc(/C=C/C(=O)NC/C=C(/C)c2ccc(C)c(CO)c2C)cn1` yielded a melting point of 160 to 165 °C. In the case of `O=C1CCCN1C(=O)c1cccnc1`, the melting point is reported as 98 to 100 °C. For `COC(=O)c1ccc(OC)nc1F`, the melting point was 81 to 82 °C. `CCCCCCCCCCCCCCCCCCOc1cc(NC(=O)OCc2ccccc2)cc(OCCCCC(=O)OC)c1` gave a melting point of 59 to 62 °C. Work on `CCCCCNC(=O)CCCCC` yielded a melting point of 37 °C. Compound `CCC(=O)C(CCCCCCCOc1ccc(OCc2ccccc2)cc1)C(=O)CC` has a melting point of 54 to 55 °C. Work on `COc1ccc(NC(=O)c2csc(Br)c2OC)cc1N1CCN(C)CC1` yielded a melting point of 120 to 122 °C. `CCOC(=O)c1ccc(-c2cc(O)c(SCCc3ccccc3)c(=O)o2)cc1` showed a melting point of 156 to 158 °C. `COc1cccc(C2(C=O)CCNCC2)c1OC` showed a melting point of 123 °C. `Cc1nnc(C)c(-c2c(F)cc(F)cc2F)c1-c1cccs1` gave a melting point of 100 to 102 °C. With `CCOC(=O)c1c(C(F)(F)F)nc(C(F)(F)Cl)c(C(=O)OC)c1Cl` the melting point was 57.5 to 59.5 °C. In the case of `COc1ccc(C(=O)Nc2nc3ccc(N)cc3c(NCc3ccccc3)c2C#N)cc1`, the melting point is reported as 228 to 230 °C. Work on `CCN(c1ccc(C(F)(F)F)cc1)C1CCN(c2ccc(OC[C@H]3CCn4cc([N+](=O)[O-])nc4O3)cc2)CC1` yielded a melting point of 206 °C. Compound `O=C(CN1CCN(C(=O)c2cc(C(F)(F)F)cc(C(F)(F)F)c2)[C@H](Cc2c[nH]c3ccccc23)C1)c1ccc(F)cc1` has a melting point of 95 to 105 °C. `CCOC(=O)c1cn(-c2cccc(OC3CCCC3)c2)cn1` showed a melting point of 66 to 67 °C. Compound `CC1(C)Nc2ccc(Cl)cc2N(C2CC2)C1=O` has a melting point of 132 to 133 °C. `COc1ccc([N+](=O)[O-])c(CCc2cc(OC)ccc2[N+](=O)[O-])c1` showed a melting point of 193 to 195 °C. With `CC[C@H](Cn1ncnn1)n1cnc2cc3c(=O)n([C@H](C)Cn4ncnn4)nnc3cc2c1=O` the melting point was 80 to 82 °C. In the case of `CC(=O)Nc1ccc(S(=O)(=O)O)c(NCC(=O)O)c1`, the melting point is reported as 234 to 235 °C. With `Nc1cc(-c2c[nH]cn2)ccn1` the melting point was 193 to 196 °C. Compound `CC(Oc1ccc(Cl)cc1)c1ccnn2cnnc12` (stereo not drawn) has a melting point of 98 to 99 °C. `NC(=O)NCCN1CCC(O[N+](=O)[O-])CC1` showed a melting point of 114 to 116 °C. With `O=C(O)CCCCc1cn(-c2cccnc2)c2ccccc12` the melting point was 122 to 124 °C. Compound `Cc1ccc(S(=O)(=O)Nc2cc(C(=O)O)c3c(c2)C(C(=O)O)CCN3)cc1` (stereo not drawn) has a melting point of 221 to 223 °C. With `O=C1NC(=O)C(=Cc2ccc(OC[C@@H]3CCCN3c3ccccn3)cc2)S1` the melting point was 164 °C. `O=Cc1c(F)cccc1NCc1ccccc1` gave a melting point of 72.5 to 74.5 °C. In the case of `COC(=O)c1coc(-c2ncn3c2CN(C)C(=O)c2ccccc2-3)n1`, the melting point is reported as 264 to 265 °C. With `CC(C)(C)OC(=O)N[C@@H](C=O)Cc1ccc(OCc2ccccc2)cc1` the melting point was 98 to 99 °C. `Cc1cccc(C)c1CNc1cc(S(=O)(=O)N(C)C)cc2c1nc(C)n2C` gave a melting point of 237 to 238 °C. `CC(C)(C)C(=O)CC(=O)Nc1cc(OC(=O)c2cc(C(C)(C)C)c(O)c(C(C)(C)C)c2)ccc1Cl` showed a melting point of 145 to 147 °C. `Brc1ccc(SCc2noc(CSc3ccc(Br)cc3)n2)cc1` gave a melting point of 80 °C. With `O=C(O)c1cc2cc(Cl)cc(Cl)c2nc1N[C@@H](Cc1ccccc1)C(=O)O` the melting point was 218 to 223 °C. Work on `O=P(O)(O)Cc1ccc2ccccc2c1` yielded a melting point of 234 to 236 °C. `CN[C@H]1CCN(c2c(-c3csc(C)n3)c(C)c(C#N)c3nc(C(=O)N(C)C)oc23)C1` showed a melting point of 138 to 140 °C. Compound `N#CC(F)(F)C(F)(F)C(F)(F)C(F)(F)C#N` has a melting point of 132 °C. Work on `O=C(Nc1c(OCc2ccccc2)cc(Br)cc1[N+](=O)[O-])C1CC1` yielded a melting point of 191 °C. Work on `CC(=O)NCC#CCn1cncc1C` yielded a melting point of 111 to 115 °C. `Cc1c(NCC2CCCCO2)cc2oc(=O)[nH]c2c1F` (stereo not drawn) showed a melting point of 166 °C. `O=C(NCc1ccccn1)Nc1cc(N2CC(COCc3ccccc3)OC2=O)ccn1` (stereo not drawn) showed a melting point of 134 to 135 °C. With `O=C1CS(=O)c2ccccc2N1` (stereo not drawn) the melting point was 184 to 186 °C. `CCOC(=O)C(=CN(C)C)C(=O)c1ccc(Br)cc1Cl` gave a melting point of 100 to 101 °C. `COc1ccc(Cn2c(=O)c3cc([N+](=O)[O-])ccc3n(CCCCBr)c2=O)cc1` gave a melting point of 143 to 144 °C. `CC(C)n1nc(-c2cnc(N)nc2-c2ccncc2)ccc1=O` showed a melting point of 219 °C. For `COc1cc2c(c(Cl)c1Cl)C(=O)C(C)(c1ccc(F)cc1)C2` (stereo not drawn), the melting point was 163 to 170 °C. Compound `CCS(=O)C1CCC2C3CCC4=CC(=O)C=CC4(C)C3(F)C(O)CC21C` (stereo not drawn) has a melting point of 247 to 250 °C. Work on `CSc1ccc(Br)c2c1C1=NOCC1C2` (stereo not drawn) yielded a melting point of 127 to 135 °C. `CC(=O)Nc1nnc(SCC(O)(Cn2cncn2)c2ccc(Cl)cc2Cl)s1` (stereo not drawn) showed a melting point of 132 °C. `O=C(O)COc1c(Br)cc(C(=O)c2c(Cc3ccccc3)sc3ccccc23)cc1Br` gave a melting point of 162 to 163 °C. `C=Cc1ccc(CSCCOC(=O)COCC(=O)O)cc1` showed a melting point of 63 to 68 °C. `Cc1c(Cl)ccc(C(N)=O)c1N` gave a melting point of 206 to 208 °C. `COc1ccc(Cl)cc1[C@]1(F)C(=O)N(C(=O)NC(C)(C)C(=O)O)c2cc(C(F)(F)F)ccc21` gave a melting point of 57 to 60 °C. Work on `Cc1ccc(C(=O)C2=C(O)C(=O)N(c3ccc(C)nn3)C2c2ccc(OC(F)(F)F)cc2)cc1` (stereo not drawn) yielded a melting point of 215 °C. Work on `Nc1n[nH]c(-c2ccco2)n1` yielded a melting point of 204 to 206 °C. Work on `COC(=O)Cc1nnc2n1-c1ccc(Cl)cc1C(c1ccccc1)=NC2` yielded a melting point of 202 to 204 °C. `N#Cc1cnc2cnc(F)cc2c1Cl` gave a melting point of 150 to 155 °C. For `CC(C)(C)OC(=O)N1CCc2cc(OCc3ccccc3)c(OCc3ccccc3)cc2C1Cc1ccc([N+](=O)[O-])cc1` (stereo not drawn), the melting point was 150 to 152 °C. For `O=C(NCc1ccccc1)Nc1cc(N2CC(c3ccccc3)CC2=O)ccn1` (stereo not drawn), the melting point was 165 to 166 °C. `COc1ccc(-n2nc3c4c([nH]cc-3c2=O)CCCC4)cc1` gave a melting point of 279 to 282 °C. For `CCCCCCCCCCOc1cc2oc3ccc(C(=O)O)cc3c(=O)c2cc1CCC(=O)O`, the melting point was over 210 °C. Compound `CCc1c(-c2ccc(OCc3ccccc3)cc2)c2ccc3c(N)ccc1n32` has a melting point of 123 to 127 °C. `NCCCP(=O)(O)C1SCCS1` showed a melting point of 272 to 274 °C. Compound `COc1ccc(/C(C)=C/C=C/C(=O)O)cc1` has a melting point of 174 to 177 °C. Compound `COc1ccc(-n2c(=O)c(C)nc3ccccc32)cc1` has a melting point of 230 to 232 °C. With `COc1ccc(-c2cn([C@H]3CN4CCC3CC4)nn2)cn1` the melting point was 155 °C. In the case of `Cn1cc(-c2cc3nccnc3[nH]2)c2ccccc21`, the melting point is reported as 264 to 266 °C. Compound `COc1ccc(C(C)C)cc1-c1cc(-c2nnnn2CCc2ccccc2)c(OCc2ccccc2)cc1OCc1ccccc1` has a melting point of 118 to 120 °C. In the case of `COc1cc2[nH]c(=O)cc(C(F)(F)F)c2cc1NC(C)=O`, the melting point is reported as 280 °C. In the case of `COc1ccccc1NS(=O)(=O)c1ccc(N2CCNC2=O)cc1`, the melting point is reported as 209 to 211 °C. Work on `Cc1ccc(OC2CCN(C(=O)C(=O)Nc3ccc4c(c3)CC(=O)N4)CC2)cc1` yielded a melting point of 109 to 112 °C. `CCCOc1ccc(S(=O)(=O)NCCN(C)C)cc1-c1nc2cc3nc[nH]c3cc2c(=O)[nH]1` gave a melting point of 212 to 214 °C. Work on `CN(C)Cc1ccc(CSCCNc2ncc(N)c(=O)[nH]2)o1` yielded a melting point of 127 to 132 °C. `O=C(NCCOc1ccc(CC(Oc2cc(F)c(F)c(F)c2)C(=O)O)cc1)c1ccc(-c2ccccn2)cc1` (stereo not drawn) showed a melting point of 144 to 146 °C. `CCCCCCCOc1cc2c(cc1/C(C)=C/c1ccc(C(=O)O)cc1)C(C)(C)CCCS2(=O)=O` gave a melting point of 153 to 154 °C. Compound `CS(=O)(=O)Nc1cccc(OCC#N)c1` has a melting point of 91 to 92 °C. In the case of `CCC(C)c1c(OC)ccc2c1oc1ccc(C#N)cc12` (stereo not drawn), the melting point is reported as 80 to 82 °C. In the case of `Cc1oc(-c2ccco2)nc1/C=C/c1ccc(C=CC=C2OC(=O)NC2=O)cc1`, the melting point is reported as 290 to 291 °C. Work on `COc1ccc(C2=C(N)c3cc(OC)ccc3C2=O)cc1` yielded a melting point of 213 °C. Compound `CCCCc1nc2ccccc2n1Cc1ccc(C#N)cc1` has a melting point of 130 °C. In the case of `CCOC(=O)c1cn(CC)c2nc(-c3ccncc3)c(F)cc2c1=O`, the melting point is reported as 185 to 186 °C. Compound `OCc1cccc2c1[nH]c1c3cc(Br)ccc3oc21` has a melting point of 218 to 219 °C. For `C=CCn1ccc(=O)[nH]c1=O`, the melting point was 108 to 109 °C. `Cc1ccnc2c(N)cc(F)cc12` showed a melting point of 100 to 101 °C. In the case of `OC1CCN(CCCc2noc3cc(F)ccc23)CC1`, the melting point is reported as 88 to 89 °C. Compound `COc1cc(C=O)cc(OC)c1F` has a melting point of 97 to 98 °C. With `Cc1nc(N)nc(N)c1OCCCOc1ccccc1C(F)(F)F` the melting point was 132 to 134 °C.
